Assay results: the supplement of paper PMC10307832

Legend:
Assay in all cases: relative viability (nuclei count vs DMSO), 5 days (fraction); higher = more cells survive
[1] = compound: CC1CC(=O)N(C2=CN=C(N=C2N1C3CCCC3)NC4=C(C=C(C=C4)C(=O)NC5CCN(CC5)C)OC)C [NPK76-II-72-1] + CCNC(=O)c1noc(-c2cc(C(C)C)c(O)cc2O)c1-c1ccc(CN2CCOCC2)cc1 [Luminespib] (partner 0.01 µM)
How it was run: (§1)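 Lung cancer cell lines were pin-tool dosed in 1536-well plates on the day after seeding, with either a lone drug or a fixed anchor-drug dose plus five library-drug doses (not always all listed) in √10 steps. Nuclei were counted on 4× images after 5 days. Relative viability is the ratio of treated-well to vehicle-well nuclei counts, with each value a median of duplicate plates.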

[2] = compound: CC1CC(=O)N(C2=CN=C(N=C2N1C3CCCC3)NC4=C(C=C(C=C4)C(=O)NC5CCN(CC5)C)OC)C [NPK76-II-72-1] + N=C(N)NC(=N)NCCc1ccccc1 [Phenformin] (partner 250 µM)
How it was run: as §1

[3] = compound: CC1CC(=O)N(C2=CN=C(N=C2N1C3CCCC3)NC4=C(C=C(C=C4)C(=O)NC5CCN(CC5)C)OC)C [NPK76-II-72-1] + Nc1ncn([C@H]2C[C@H](O)[C@@H](CO)O2)c(=O)n1 [Decitabine] (partner 2 µM)
How it was run: as §1

[4] = compound: CC[C@@H]1C(=O)N(C)c2cnc(Nc3ccc(C(=O)NC4CCN(C)CC4)cc3OC)nc2N1C1CCCC1 [BI-2536] + C[C@]1(O)C[C@@H](c2nc(-c3ccc4ccc(-c5ccccc5)nc4c3)c3c(N)nccn32)C1 [Linsitinib] (partner 1 µM)
How it was run: as §1

Row | Cell Line | relative viability ([1]; first compound 0.01 µM) | relative viability ([1]; first compound 0.03162 µM) | relative viability ([1]; first compound 0.1 µM) | relative viability ([1]; first compound 0.3162 µM) | relative viability ([1]; first compound 1 µM) | relative viability ([2]; first compound 0.01 µM) | relative viability ([2]; first compound 0.03162 µM) | relative viability ([2]; first compound 0.1 µM) | relative viability ([2]; first compound 0.3162 µM) | relative viability ([2]; first compound 1 µM) | relative viability ([3]; first compound 0.01 µM) | relative viability ([3]; first compound 0.03162 µM) | relative viability ([3]; first compound 0.1 µM) | relative viability ([3]; first compound 0.3162 µM) | relative viability ([3]; first compound 1 µM) | relative viability ([4]; first compound 0.01 µM) | relative viability ([4]; first compound 0.03162 µM) | relative viability ([4]; first compound 0.1 µM) | relative viability ([4]; first compound 0.3162 µM) | relative viability ([4]; first compound 1 µM)
1 | NCI-H2009 | 0.976 | 1.1 | 1.01 | 1.07 | 1.04 | 0.491 | 0.513 | 0.446 | 0.462 | 0.477 | 0.422 | 0.42 | 0.38 | 0.364 | 0.365 | 1.21 | 1.18 | 1.14 | 0.394 | 0.294
2 | HCC-15 | 0.226 | 0.256 | 0.275 | 0.16 | 0.318 | 0.456 | 0.564 | 0.462 | 0.444 | 0.494 | 0.559 | 0.675 | 0.638 | 0.682 | 0.671 | 0.921 | 0.965 | 0.815 | 0.28 | 0.143
3 | HCC-44 | 0.977 | 1.26 | 0.996 | 1.02 | 1.2 | 0.201 | 0.176 | 0.22 | 0.212 | 0.271 | 0.991 | 1.08 | 0.931 | 0.922 | 0.968 | 0.672 | 0.72 | 0.602 | 0.12 | 0.0939
4 | COR-L23 | 0.655 | 0.789 | 0.746 | 0.711 | 0.761 | 0.397 | 0.453 | 0.491 | 0.434 | 0.438 | 0.423 | 0.473 | 0.469 | 0.384 | 0.454 | 0.961 | 1.06 | 0.605 | 0.104 | 0.0946
5 | NCI-H727 | 0.29 | 0.31 | 0.288 | 0.246 | 0.412 | 0.49 | 0.435 | 0.481 | 0.411 | 0.672 | 0.874 | 0.888 | 0.801 | 0.785 | 0.764 | 0.416 | 0.268 | 0.281 | 0.282 | 0.211
6 | NCI-H2087 | 0.154 | 0.16 | 0.136 | 0.158 | 0.185 | 0.42 | 0.543 | 0.397 | 0.398 | 0.498 | 0.226 | 0.33 | 0.3 | 0.217 | 0.36 | 0.83 | 1.06 | 0.927 | 0.197 | 0.163
7 | BEN | 0.326 | 0.332 | 0.325 | 0.403 | 0.329 | 0.229 | 0.228 | 0.276 | 0.245 | 0.253 | 0.661 | 0.713 | 0.671 | 0.743 | 0.76 | 0.876 | 0.874 | 0.83 | 0.658 | 0.222
8 | LCLC-103H | 0.9 | 1.05 | 0.919 | 1.03 | 1.01 | 0.273 | 0.363 | 0.342 | 0.329 | 0.342 |  | 0.786 | 0.694 | 0.761 | 0.716 | 1.16 | 1.04 | 1.05 | 0.942 | 0.143
9 | EKVX | 0.735 | 0.863 | 0.912 | 0.888 | 0.95 | 0.221 | 0.237 | 0.225 | 0.147 | 0.252 | 0.329 | 0.353 | 0.34 |  | 0.387 | 1.1 | 0.96 | 0.818 | 0.368 | 0.169
10 | LXF-289 | 0.614 | 0.761 | 0.675 | 0.694 | 0.688 | 0.531 | 0.587 | 0.503 | 0.516 | 0.497 | 0.345 | 0.374 | 0.364 | 0.383 | 0.357 | 0.988 | 0.892 | 0.845 | 0.069 | 0.0799
11 | ABC-1 |  | 0.389 |  | 0.543 | 0.522 | 0.264 | 0.223 | 0.202 | 0.258 | 0.28 | 0.94 | 1 | 0.859 | 1.13 | 0.887 | 0.816 | 0.838 | 0.895 | 0.292 | 0.253
12 | NCI-H650 | 0.72 | 0.843 | 0.718 | 0.615 | 0.891 | 0.441 | 0.457 | 0.454 | 0.381 | 0.486 | 0.316 | 0.33 | 0.358 | 0.311 | 0.299 | 0.964 | 0.881 | 0.534 | 0.165 | 0.17
13 | NCI-H2085 | 0.442 | 0.437 | 0.391 | 0.381 | 0.437 | 0.765 | 0.735 | 0.682 | 0.668 | 0.695 | 0.543 | 0.519 | 0.517 | 0.472 | 0.611 | 0.958 | 0.919 | 0.831 | 0.267 | 0.329
14 | NCI-H1793 | 0.144 | 0.166 | 0.203 | 0.176 | 0.201 | 0.3 | 0.387 | 0.38 | 0.31 | 0.432 |  | 0.542 | 0.547 | 0.409 | 0.575 | 0.939 | 0.85 | 1.03 | 0.211 | 0.205
